Data reported in article PMC10072296, “A Novel CCK Receptor GPR173 Mediates Potentiation of GABAergic Inhibition” (The Journal of Neuroscience, 2023).

Experiments:
CCK2R = experiment: Cell surface binding assay, Flag-CCK2R; parameters: species or system human; conditions: transfected HEK293T cells; HHBS with 20 mM HEPES, pH 7.4, 30 min, room temperature; anti-HA/anti-Flag immunofluorescence, confocal; n = 33-40 cells, three independent experiments
Procedure: (§1) We transfected HEK293T cells with pCDNA3.1(+)-Flag-GPCR (purchased from Public Protein/Plasmid Library or made in our laboratory based on a pCDNA3.1(+) backbone). […] After three washes with HHBS, cells were fixed in 4% paraformaldehyde (PFA) and 4% sucrose in PBS for 15 min at room temperature. Cells were blocked in 5% normal goat serum in PBS, and staining was performed in detergent-free conditions without cell permeabilization after three washes by PBS. We used primary antibody rabbit anti-HA (catalog #8146, Cell Signaling Technology), anti-GPR173 (catalog #PA5-50 976, Thermo Fisher Scientific), and mouse anti-Flag (catalog #3724, Cell Signaling Technology) to detect HA and Flag tags. Images were captured on a Leica SP8 confocal microscope. Images within each experiment were collected using identical laser power, offset, and gain.

HTR1B = experiment: Cell surface binding assay, Flag-HTR1B; parameters: species or system human; conditions: transfected HEK293T cells (negative/background control); HHBS pH 7.4, 30 min, room temperature; confocal
Procedure: as §1

GPR173 = experiment: Cell surface binding assay, Flag-GPR173; parameters: species or system human; conditions: transfected HEK293T cells; HHBS with 20 mM HEPES, pH 7.4, 30 min, room temperature; Fanti-HA/Fanti-Flag, confocal; n = 33-40 cells, three independent experiments
Procedure: as §1

[1] = system: IPSCs of pyramidal neurons in auditory cortex (AC) brain slices; experiment: In vitro patch-clamp recording of laser-evoked IPSCs in pyramidal neurons; conditions: devazepide 60 nM in bath solution, brain slices from mDlx-DIO-ChR2-mCherry-injected CCK-Cre mice
Excerpt: For brain slice recording experiments, we injected rAAV9-mDlx-DIO-ChR2-mCherry-WPRE-pA (5.18E + 12 vg/ml; BrainVTA) into the AC of CCK-Cre and PV-Cre mice.
In the in vivo brain slice recording experiments, we adopted a protective cutting and recovery method to prepare acute brain slices from CCK-Cre, PV-Cre, CCK-KO, and CCK1R/2R-KO mice to achieve a higher success rate for patch clamping, as previously described ([Chen et al., 2019]). […]
We performed whole-cell recordings with a MultiClamp 700B amplifier and Digital 1440A digitizer (Molecular Devices) targeting the AC in the brain slices in room temperature aCSF containing the following (in mM): 119 NaCl, 2.5 KCl, 1.25 NaH2PO4, 24 NaHCO3, 12.5 glucose, 2 CaCl2·4H2O, and 2 MgSO4·7H2O, ∼25°C). […] We recorded IPSCs in response to the laser stimulation (1 pulse per 15 s, 5 ms in duration) under voltage-clamp recording mode (holding at −60 mV to −50 mV) for 5 min as the baseline before and for 25 min after HFLS or LFLS. […] For the normalization of recorded IPSCs in the CCK-Cre, PV-Cre, CCK-KO, and CCK1R/2R-KO mice, we selected only patched neurons with IPSCs >35 pA.

[2] = target: T1, GPR173 (CHO-GPR173 cells) (Homo sapiens, UniProt Q9NS66); experiment: Ca2+ imaging assay in CHO-GPR173 cells; assay type: cell-based
T1 construct: expressed in transfected cells; host or cells: CHO cells, lentiviral infection (pLVX-puro-GPCR), puromycin selection, monoclonal line
T1 sequence (Q9NS66 whole entry): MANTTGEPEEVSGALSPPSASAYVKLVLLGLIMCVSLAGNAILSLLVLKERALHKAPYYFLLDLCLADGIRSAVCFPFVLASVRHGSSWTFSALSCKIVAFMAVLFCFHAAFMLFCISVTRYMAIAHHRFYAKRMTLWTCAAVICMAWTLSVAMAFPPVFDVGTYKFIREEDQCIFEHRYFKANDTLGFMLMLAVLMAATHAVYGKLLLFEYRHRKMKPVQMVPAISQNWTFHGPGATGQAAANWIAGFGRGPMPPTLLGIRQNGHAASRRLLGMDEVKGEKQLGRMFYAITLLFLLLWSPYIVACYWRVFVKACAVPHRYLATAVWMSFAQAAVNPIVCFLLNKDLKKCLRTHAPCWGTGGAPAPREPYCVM
Procedure: CHO and infected CHO cells (CHO-GPCRs) were cultivated at 37°C in a humidified atmosphere with 5% CO2 in DMEM/F-12 medium (Thermo Fisher Scientific) supplemented with 10% FBS (Natocor Industria Biológica).
For Ca^2+ mobilization by a confocal microscope, ∼8 × 10^4 transfected cells were seeded in each well of an eight-well chambered cover glass (Thermo Fisher Scientific) the day before the Ca^2+ imaging assay. Then, 5 μM Fluo-8 (AAT Bioquest) dissolved in HHBS solution was incubated with the cells for 30 min in a cell incubator and 30 min at room temperature after removing the culture medium. These cells were washed three times with HHBS, and 360 µl HHBS was added. Subsequently, images of these cells were captured by a Zeiss 710 nonlinear optical confocal microscope before and after being treated with 10× compounds or HHBS solution.
Cells were cultured at 37°C, and 5% CO2 in DMEM/F-12 medium (Thermo Fisher Scientific) containing 10% FBS (Natocor Industria Biológica) and washed with DMEM/F-12 medium once after overnight incubation.

Compound | Binding to Flag-CCK2R (Fanti-HA/Fanti-Flag) (CCK2R) | Binding to Flag-HTR1B (HTR1B) | Binding to Flag-GPR173 (GPR173) | Block of HFLS-induced potentiation of IPSCs [1] | Antagonistic action on GPR173, rank ([2]; CHO-GPR173, 10 nM CCK8s, compared with loxiglumide, YF476 and L365,260) | IC50 ([2]; read-out: IC50, antagonism of CCK8s-induced Ca2+ response) [nM]
HA-tagged CCK8s: HA-(ε-Ahx)2-CCK variant probe of CCK8s | significantly larger ratio of CCK ligand HA-tag signal to CCK2R Flag signal (Fanti-HA/Fanti-Flag) than that of the HA-(ε-Ahx)2 control group | No binding | could only bind to HA-tagged CCK8 |  |  | 
HA-tagged CCK8ns: HA-(ε-Ahx)2-CCK variant probe of nonsulfated CCK8 | significantly larger ratio of CCK ligand HA-tag signal to CCK2R Flag signal (Fanti-HA/Fanti-Flag) than that of the HA-(ε-Ahx)2 control group | No binding | not HA-tagged CCK4 or CCK8ns |  |  | 
CN1C(=O)[C@@H](NC(=O)c2cc3ccccc3[nH]2)N=C(c2ccccc2)c2ccccc21 [devazepide] |  |  |  | fully blocked the HFLS-induced potentiation of IPSCs | highest antagonistic action on GPR173 | 12.3
